Measured values taken from the NIST ThermoML archive (doi:10.1021/acs.jced.5b00934).

Conditions: Liquid, Vibrating tube method

CCC(C)O (stereo not drawn) [butan-2-ol]
Conditions | mass density [kg/m3]
323.15 K, 57941 kPa | 822.2
323.15 K, 65042 kPa | 826.2
323.16 K, 83 kPa | 780.1
323.16 K, 310 kPa | 780.3
323.16 K, 904 kPa | 780.9
323.16 K, 2023 kPa | 781.9
323.16 K, 2969 kPa | 782.8
323.16 K, 22069 kPa | 798.7
323.16 K, 30034 kPa | 804.5
323.16 K, 32030 kPa | 805.9
323.16 K, 33179 kPa | 806.7
323.16 K, 34081 kPa | 807.3
323.16 K, 35135 kPa | 808
323.16 K, 44962 kPa | 814.4
323.16 K, 48021 kPa | 816.3
323.16 K, 55018 kPa | 820.5
323.16 K, 60048 kPa | 823.4
323.16 K, 62109 kPa | 824.6
323.16 K, 66222 kPa | 826.9
328.15 K, 97 kPa | 775.5
328.15 K, 549 kPa | 775.9
328.15 K, 2980 kPa | 778.3
328.15 K, 6989 kPa | 782.1
328.15 K, 9026 kPa | 784
328.15 K, 10174 kPa | 785
328.15 K, 15005 kPa | 789.1
328.15 K, 17974 kPa | 791.5
328.15 K, 22112 kPa | 794.8
328.15 K, 28057 kPa | 799.3
328.15 K, 30020 kPa | 800.7
328.15 K, 32096 kPa | 802.2
328.15 K, 33090 kPa | 802.9
328.15 K, 34106 kPa | 803.6
328.15 K, 38003 kPa | 806.3
328.15 K, 40189 kPa | 807.7
328.15 K, 42227 kPa | 809.1
328.16 K, 325 kPa | 775.7
328.16 K, 909 kPa | 776.3
328.16 K, 1025 kPa | 776.4
328.16 K, 2032 kPa | 777.5
328.16 K, 4986 kPa | 780.3
328.16 K, 12064 kPa | 786.6
328.16 K, 20081 kPa | 793.3
328.16 K, 25008 kPa | 797.1
328.16 K, 33187 kPa | 802.9
328.16 K, 35148 kPa | 804.3
328.16 K, 45203 kPa | 811.1
328.16 K, 48119 kPa | 812.8
328.16 K, 50027 kPa | 814
328.16 K, 52217 kPa | 815.4
328.16 K, 55140 kPa | 817.1
328.16 K, 58016 kPa | 818.7
328.16 K, 59968 kPa | 819.8
328.16 K, 61968 kPa | 820.9
328.16 K, 65013 kPa | 822.7
328.16 K, 66143 kPa | 823.3
333.15 K, 100 kPa | 770.5
333.15 K, 350 kPa | 770.7
333.15 K, 494 kPa | 770.9
333.15 K, 901 kPa | 771.3
333.15 K, 1016 kPa | 771.5
333.15 K, 2000 kPa | 772.4
333.15 K, 3021 kPa | 773.4
333.15 K, 5004 kPa | 775.4
333.15 K, 7066 kPa | 777.4
333.15 K, 8994 kPa | 779.1
333.15 K, 10031 kPa | 780
333.15 K, 11980 kPa | 781.8
333.15 K, 15020 kPa | 784.5
333.15 K, 17985 kPa | 786.9
333.15 K, 22042 kPa | 790.2
333.15 K, 25059 kPa | 792.7
333.15 K, 28048 kPa | 794.9
333.15 K, 29961 kPa | 796.3
333.15 K, 32126 kPa | 798
333.15 K, 32780 kPa | 798.4
333.15 K, 32804 kPa | 798.4
333.15 K, 33981 kPa | 799.2
333.15 K, 35081 kPa | 800
333.15 K, 38040 kPa | 802.1
333.15 K, 39970 kPa | 803.4
333.15 K, 45112 kPa | 806.9
333.15 K, 47953 kPa | 808.7
333.15 K, 50048 kPa | 810.1
333.15 K, 52052 kPa | 811.3
333.15 K, 55007 kPa | 813.2
333.15 K, 62024 kPa | 817.4
333.15 K, 64970 kPa | 819.1
333.15 K, 66117 kPa | 819.8
333.16 K, 20151 kPa | 788.8
333.16 K, 42099 kPa | 804.9
333.16 K, 58002 kPa | 815
333.16 K, 60019 kPa | 816.2
338.15 K, 99 kPa | 765.5
338.15 K, 292 kPa | 765.7
338.15 K, 539 kPa | 766
338.15 K, 892 kPa | 766.4
338.15 K, 1007 kPa | 766.5
338.15 K, 3160 kPa | 768.7
338.15 K, 4911 kPa | 770.5
338.15 K, 10039 kPa | 775.5
338.15 K, 12002 kPa | 777.3
338.15 K, 15149 kPa | 780.1
338.15 K, 18051 kPa | 782.6
338.15 K, 19986 kPa | 784.2
338.15 K, 21999 kPa | 785.9
338.15 K, 32975 kPa | 794.4
338.15 K, 35130 kPa | 796
338.15 K, 40077 kPa | 799.5
338.15 K, 44943 kPa | 802.8
338.15 K, 48022 kPa | 804.9
338.15 K, 52052 kPa | 807.5
338.15 K, 55069 kPa | 809.5
338.15 K, 58033 kPa | 811.3
338.15 K, 60108 kPa | 812.6
338.15 K, 62047 kPa | 813.7
338.15 K, 65005 kPa | 815.5
338.15 K, 66128 kPa | 816.2
338.16 K, 2082 kPa | 767.6
338.16 K, 6964 kPa | 772.5
338.16 K, 8976 kPa | 774.5
338.16 K, 24990 kPa | 788.3
338.16 K, 27960 kPa | 790.7
338.16 K, 30065 kPa | 792.3
338.16 K, 31895 kPa | 793.7
338.16 K, 32982 kPa | 794.5
338.16 K, 33953 kPa | 795.1
338.16 K, 37933 kPa | 798
338.16 K, 41987 kPa | 800.8
338.16 K, 50029 kPa | 806.2
343.15 K, 90 kPa | 760.2
343.15 K, 290 kPa | 760.5
343.15 K, 469 kPa | 760.6
343.15 K, 910 kPa | 761.1
343.15 K, 1032 kPa | 761.3
343.15 K, 1994 kPa | 762.3
343.15 K, 4978 kPa | 765.5
343.15 K, 7040 kPa | 767.6
343.15 K, 9056 kPa | 769.6
343.15 K, 10137 kPa | 770.7
343.15 K, 12089 kPa | 772.5
343.15 K, 14318 kPa | 774.6
343.15 K, 15186 kPa | 775.4
343.15 K, 17997 kPa | 777.9
343.15 K, 19975 kPa | 779.7
343.15 K, 22054 kPa | 781.5
343.15 K, 25145 kPa | 784.1
343.15 K, 27969 kPa | 786.3
343.15 K, 30130 kPa | 788.1
343.15 K, 31848 kPa | 789.4
343.15 K, 32904 kPa | 790.1
343.15 K, 33014 kPa | 790.3
343.15 K, 33950 kPa | 790.9
343.15 K, 35008 kPa | 791.7
343.15 K, 38168 kPa | 794.1
343.15 K, 39957 kPa | 795.4
343.15 K, 42001 kPa | 796.8
343.15 K, 44975 kPa | 798.9
